Assays:
Type in all cases: in vivo, mouse
[1] = test system: male mice; assay: Subthreshold social defeat stress followed by female urine sniffing test (anhedonia); details: for stress-induced anhedonia: chronic treatment (silastic implant or minipump), orchiectomized male mice + SSDS; for anhedonia (female urine preference): orchiectomized male mice
Protocol: (§1) Subthreshold social defeat stress: Retired CD1 breeders are singly housed and used as aggressors. Experimental mice are introduced to the home cage of an aggressor for 2 min to initiate the physical attack phase. Afterward, mice are transferred and housed on the opposite side of the aggressor, in the same cage separated by a perforated Plexiglass divider for 15 mins in order to maintain sensory contact. This process is repeated 3 times over a period of ~50 min.
(§2) Female Urine Preference Test: is performed 24 hours after the social interaction test as using previously described methods. The amount of time mice spent interacting with a cotton-tipped applicator soaked in either fresh male or female mouse urine during a total of 3 minutes is analyzed by an experimenter blind to the experimental groups.
(§3) For the chronic administration paradigms, silastic tubes (1.02 mm inner diameter×2.16 mm outer diameter) were filled with testosterone (10 mm) or 17β-Estradiol (E2; 1,3 and 10 mm; Sigma-Aldrich, St. Louis, MO, USA). Silastic implants were primed in 0.9% saline at 37° C. overnight prior to their subcutaneous use. Letrozole (1 mg/kg/day; Sigma-Aldrich, St. Louis, MO, USA) was dissolved in propylene glycol (MP Biomedicals, Santa Ana, CA, USA) and administered through ALZET minipumps (Model 1002, 0.25 μl/hour, 14 days; Cupertino, CA, USA). DHED (synthesized using previously described methods) was dissolved in 0.9% saline and administered through ALZET minipumps (Model 1002, 0.25 μl/hour, 14 days; Cupertino, CA, USA) at a dose of […]. Flutamide was administered through 1.5 mg slow-release subcutaneous pellets (Innovative Research of America, Sarasota, FL, USA). For acute administration, 17β-Estradiol (E2; 10 and […]) was dissolved in sesame oil (4 ml/kg, s.c.; Sigma-Aldrich, St. Louis, MO, USA).
(§4) Retired CD1 breeders were singly housed and used as aggressors. Two days prior to the start of the experiment, experimental mice were also singly housed. The stress procedure was performed using previously described methods. Briefly, experimental mice were introduced to the home cage of an aggressor for 2 min to initiate the physical attack phase. Afterward, mice were transferred and housed on the opposite side of the aggressor, in the same cage separated by a perforated Plexiglass divider for 15 mins in order to maintain sensory contact. This process was repeated 3 times over a period of ~50 min. Following the completion of the third cycle, mice were placed back in their home cages.
(§5) Acute E2 was administered 45 min prior to the initiation of stress or 5 min after the completion of stress. For the optogenetic stimulation, ChR2 and YFP-injected mice received a 4 Hz, 5 ms pulse width, 10-15 mW 470 nm light stimulation for 45 min prior to the initiation of stress. This stimulation paradigm was shown previously to increase synaptic transmission. The optogenetic set up consisted of an LED driver paired with a fiber-coupled LED light source attached to a bifurcated optogenetic path cable (400 μm, 0.49 NA; ThorLabs, Newton NJ, USA).
as §2, with “FUST procedure was” for “Female Urine Preference Test: is”, “and 48 hours after stress. FUST was performed” for “as”, “was” for “is”

[2] = test system: male mice; assay: Stress-moderated acquisition, extinction and reinstatement of fear; details: orchiectomized males + subthreshold SDS, 10 mm silastic implant
From the text: Determine the role of E2 in stress-moderated acquisition, extinction, and reinstatement of fear responses in males. Animal approaches to study PTSD should include an inescapable severe stressor. These experiments assess interactions between a stress and the effects of E2. […] For either result, it is critical to understand if E2 mediates interactions with stress. This is because the acquisition of fear is an adaptive response that is not considered pathological in and of itself. However, veterans have often encountered stressful circumstances that lead to an exaggerated and pathological state of fear, which is both resistant to extinction and highly susceptible to relapse. Considering that social stress is an important risk factor contributing toward the onset of PTSD in response to a traumatic event, the social defeat stress paradigm is utilized in order to model the conditions under which veterans develop PTSD. […] It is anticipated that sub-threshold SDS (rather than 10 day) paradigm is sufficient to induce effects in orchiectomized mice. […] Mice are assessed for social interaction deficits 24 hours after the subthreshold defeat sessions to determine if they are resilient or susceptible. n=18/mice per group is used to account for only a subset of mice being susceptible to stress. […]

[3] = Body, testis and seminal vesicle weights after hormonal treatments
Protocol: as §3
Subcutaneous implantations were performed during the same time as the orchiectomies. The surgical area was thoroughly cleaned with Betadine solution (10% povidone-iodine surgical scrub) followed by 70% ethanol. A small, approximately 1-cm incision was made between the scapulae using a pair of small sterile surgical scissors. Hemostats were then inserted and spread laterally to the incision to create a cavity in the subcutaneous space in which ALZET mini-osmotic pumps or silastic implants were inserted for continuous drug/vehicle delivery. The skin was closed with suturing.

[4] = test system: male mice; assay: Subthreshold social defeat stress (SSDS) followed by social interaction test; details: for stress-induced social interaction deficits: chronic treatment (silastic implant or minipump), orchiectomized male mice + SSDS; for social interaction (sociability) deficits: orchiectomized male mice
Protocol: as §1
(§6) Social Interaction: Mice are placed in a rectangular box (40 cm length×30 cm width×35 cm height; Stoelting, IL) divided into three compartments (two equal-sized end-chambers and a middle chamber) for five minute habituation phase (10-15 lux). After the habituation phase, two small wire cages are introduced into the two end chambers, one containing an unfamiliar, non-aggressive CD1 mouse and the other remaining empty. The amount of time mice spent sniffing each cage during the five-min test is assessed using CleverSys tracking software (CleverSys, Inc, Reston VA, USA).
as §3, §4, §5
as §6, with “Social interaction was performed 24 hours following subthreshold social defeat or inescapable foot-shock stress. For the habituation phase, mice were” for “Social Interaction: Mice are”, “five minutes” for “five minute habituation phase”, “cages were” for “cages are”, “test was” for “test is”

[5] = acute administration 5 min after SSDS
[6] = acute s.c. administration 45 min prior to SSDS

SMILES	stress-induced anhedonia [1]	stress effect on extinction of conditioned fear and reinstatement [2]	body weight ([3]; chronic treatment)	seminal vesicle weight ([3]; chronic treatment)	testis weight ([3]; chronic treatment)	stress-induced social interaction deficits [4]	maladaptive behaviors (social interaction, anhedonia) ([4]; chronic treatment, gonadally intact or non-stressed mice)	anhedonia (female urine preference) [1, 5]	anhedonia (female urine preference) [1, 6]	relative seminal vesicle weights ([3]; s.c. treatment, compared to vehicle (saline) control)	social interaction (sociability) deficits [4, 5]	social interaction (sociability) deficits [4, 6]	stress-susceptible phenotype induced by low testosterone ([4]; orchiectomized mice on low dose testosterone + SSDS)
C[C@]12CC[C@H]3[C@@H](CCC4=CC(=O)CC[C@@]43C)[C@@H]1CC[C@@H]2O [Testosterone, testosterone]	reversed the observed maladaptive behaviors	reversed	increased body weight	reversed	decreased testis weight	reversed the observed maladaptive behaviors	no effect						
C[C@]12CC[C@@H]3c4ccc(O)cc4CC[C@H]3[C@@H]1CC[C@@H]2O [Example E2, 17β-Estradiol]	reversed	reversed	increased body weight	increased		reversed the stress-induced social avoidance		reversed only the anhedonia phenotype	prevented	significant increase	reversed only the anhedonia phenotype	prevented the development of both sociability deficits	completely recover the phenotype
